Test results as given in PubChem BioAssay AID2060487 (Molecular Pharmacology Branch, DTP, NCI, 2025).

System: 997537-175-T-J1-PDC complex spheroid viability
Experiment: Anticancer human tumor 997537-175-T-J1-PDC patient-derived colon adenocarcinoma cell line growth inhibition [GQUAD]
Settings: for IC50: curve of first compound; for viability, T/C: stronger effect = lower value
Method in brief: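 Multi-cell-type spheroids of tumor cells with HUVEC and mesenchymal stem cells, treated with drug combinations. Concentrations descend in half-log steps from near clinical Cmax, or from 10 microM where Cmax is unknown; viability read-out.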

[1] = second compound 0.0316 µM, first compound 0.0316 µM
[2] = second compound 0.0316 µM, first compound 0.1 µM
[3] = second compound 0.0316 µM, first compound 0.316 µM
[4] = second compound 0.0316 µM, first compound 1 µM
[5] = second compound 0.0316 µM, first compound 3.16 µM
[6] = second compound 0.0316 µM, first compound 10 µM
[7] = second compound 0.1 µM, first compound 0.0316 µM
[8] = second compound 0.1 µM, first compound 0.1 µM
[9] = second compound 0.1 µM, first compound 0.316 µM
[10] = second compound 0.1 µM, first compound 1 µM
[11] = second compound 0.1 µM, first compound 3.16 µM
[12] = second compound 0.1 µM, first compound 10 µM
[13] = second compound 0.316 µM, first compound 0.0316 µM
[14] = second compound 0.316 µM, first compound 0.1 µM
[15] = second compound 0.316 µM, first compound 0.316 µM
[16] = second compound 0.316 µM, first compound 1 µM
[17] = second compound 0.316 µM, first compound 3.16 µM
[18] = second compound 0.316 µM, first compound 10 µM
[19] = second compound 1 µM, first compound 0.0316 µM
[20] = second compound 1 µM, first compound 0.1 µM
[21] = second compound 1 µM, first compound 0.316 µM
[22] = second compound 1 µM, first compound 1 µM
[23] = second compound 1 µM, first compound 3.16 µM
[24] = second compound 1 µM, first compound 10 µM
[25] = second compound 3.16 µM, first compound 0.0316 µM
[26] = second compound 3.16 µM, first compound 0.1 µM
[27] = second compound 3.16 µM, first compound 0.316 µM
[28] = second compound 3.16 µM, first compound 1 µM
[29] = second compound 3.16 µM, first compound 3.16 µM
[30] = second compound 3.16 µM, first compound 10 µM
[31] = second compound 10 µM, first compound 0.0316 µM
[32] = second compound 10 µM, first compound 0.1 µM
[33] = second compound 10 µM, first compound 0.316 µM
[34] = second compound 10 µM, first compound 1 µM
[35] = second compound 10 µM, first compound 3.16 µM
[36] = second compound 10 µM, first compound 10 µM
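Further: spheroids exposed to the agents for 7 days.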
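Wherever viability, T/C is given: 100% = DMSO vehicle control viability.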

`Nc1ccn(C2OC(CO)C(O)C2(F)F)c(=O)n1` (centres undefined) + Cc1[nH]c2ccc(F)cc2c1-c1nc2c3cccnc3c3ncccc3c2[nH]1 was tested, and the IC50 (second compound 0.0316 µM) was > 10 µM, the IC50 (second compound 0.1 µM) was > 10 µM and the IC50 (second compound 0.316 µM) was > 10 µM. The IC50 (second compound 1 µM) was > 10 µM, the IC50 (second compound 3.16 µM) was > 10 µM and the IC50 (second compound 10 µM) was > 10 µM. For the same molecule, the viability, T/C [1] was 106%, the viability, T/C [2] was 82.5% and the viability, T/C [3] was 98.7%. For the same molecule, the viability, T/C [4] was 80.1%, the viability, T/C [5] was 86.2% and the viability, T/C [6] was 97.4%. It also gave a viability, T/C [7] of 107%, a viability, T/C [8] of 87.2% and a viability, T/C [9] of 91.5%. The viability, T/C [10] was 74.2%, the viability, T/C [11] was 87.4% and the viability, T/C [12] was 87.5%. For the same molecule, the viability, T/C [13] was 99.2%, the viability, T/C [14] was 84.6% and the viability, T/C [15] was 84.1%. The viability, T/C [16] was 73.9%, the viability, T/C [17] was 90.4% and the viability, T/C [18] was 70.2%. The viability, T/C [19] was 103%, the viability, T/C [20] was 96.3% and the viability, T/C [21] was 94.7%. The viability, T/C [22] was 98.2%, the viability, T/C [23] was 82.6% and the viability, T/C [24] was 93.5%. The viability, T/C [25] was 77.4%, the viability, T/C [26] was 69% and the viability, T/C [27] was 76%. It also gave a viability, T/C [28] of 73.1%, a viability, T/C [29] of 83% and a viability, T/C [30] of 84.8%. For the same molecule, the viability, T/C [31] was 78.3%, the viability, T/C [32] was 81.4% and the viability, T/C [33] was 90.4%. For the same molecule, the viability, T/C [34] was 87.2%, the viability, T/C [35] was 80.1% and the viability, T/C [36] was 87.5%.

`O=c1[nH]cc(F)c(=O)[nH]1` + Cc1[nH]c2ccc(F)cc2c1-c1nc2c3cccnc3c3ncccc3c2[nH]1 was tested, and the IC50 (second compound 0.0316 µM) was > 10 µM, the IC50 (second compound 0.1 µM) was > 10 µM and the IC50 (second compound 0.316 µM) was > 10 µM. For the same molecule, the IC50 (second compound 1 µM) was > 10 µM, the IC50 (second compound 3.16 µM) was > 10 µM and the IC50 (second compound 10 µM) was > 10 µM. For the same molecule, the viability, T/C [1] was 95.6%, the viability, T/C [2] was 88.1% and the viability, T/C [3] was 109%. It also gave a viability, T/C [4] of 91.7%, a viability, T/C [5] of 80.3% and a viability, T/C [6] of 89.5%. For the same molecule, the viability, T/C [7] was 87.4%, the viability, T/C [8] was 87.7% and the viability, T/C [9] was 84.6%. The viability, T/C [10] was 83.5%, the viability, T/C [11] was 98.3% and the viability, T/C [12] was 101%. For the same molecule, the viability, T/C [13] was 94.2%, the viability, T/C [14] was 76.8% and the viability, T/C [15] was 78.5%. The viability, T/C [16] was 107%, the viability, T/C [17] was 114% and the viability, T/C [18] was 109%. The viability, T/C [19] was 79.2%, the viability, T/C [20] was 94% and the viability, T/C [21] was 85.4%. For the same molecule, the viability, T/C [22] was 87.2%, the viability, T/C [23] was 108% and the viability, T/C [24] was 86.7%. For the same molecule, the viability, T/C [25] was 87.2%, the viability, T/C [26] was 83% and the viability, T/C [27] was 94.1%. The viability, T/C [28] was 95.8%, the viability, T/C [29] was 94% and the viability, T/C [30] was 76.1%. For the same molecule, the viability, T/C [31] was 70.2%, the viability, T/C [32] was 76.2% and the viability, T/C [33] was 88.6%. The viability, T/C [34] was 57%, the viability, T/C [35] was 61.4% and the viability, T/C [36] was 61.4%.
